# B1: OVA^qRAS: Ovalbumin labeled by qRAS (conjugate, UniProt P01012 2-386, looked up)
# Ovalbumin: GSIGAASMEFCFDVFKELKVHHANENIFYCPIAIMSALAMVYLGAKDSTRTQINKVVRFDKLPGFGDSIEAQCGTSVNVHSSLRDILNQITKPNDVYSFSLASRLYAEERYPILPEYLQCVKELYRGGLEPINFQTAADQARELINSWVESQTNGIIRNVLQPSSVDSQTAMVLVNAIVFKGLWEKAFKDEDTQAMPFRVTEQESKPVQMMYQIGLFRVASMASEKMKILELPFASGTMSMLVLLPDEVSGLEQLESIINFEKLTEWTSSNVMEERKIKVYLPRMKMEEKYNLTSVLMAMGITDVFSSSANLSGISSAESLKISQAVHAAHAEINEAGREVVGSAEAGVDAASVSEEFRADHPFLFCIKHIATNAVLFFGRCVSP
# modifications: qRAS label
# Assays:
# [1] = test system: A549 lung cancer cells; assay: High-throughput quantification of cytosolic delivery of qRAS-labeled protein on a plate reader; assay type: cell-based; settings: cells pretreated with 50 μM NEM for 30 min, then JetPEI and OVA^qRAS
# Method: A549 cancer cells were seeded into 96-well black plate at a density of 10,000 cells per well and incubated for 24 hr. The polymer solution (100 μg/mL) and qRAS-labeled protein (OVA^qRAS or IgG^qRAS, 25 μg/mL) were co-incubated with cells for 40 min at 37° C. The cells were washed twice with PBS (pH 7.4) and cultured in complete culture medium. The fluorescence of TMR and Cy5 were measured on a Tecan fluorescent plate reader at different times. At 24 hr, 5 mM DTT was added to cleave the intracellular disulphide bond and completely release the TMR signal. The excitation and emission settings: TMR: Ex: 545 nm with bandwidth 9 nm, Em: 595 nm with bandwidth 20 nm; Cy5: Ex: 640 nm with bandwidth 9 nm, Em: 690 nm with bandwidth 20 nm.
# The activation percentage (%) of OVA^qRAS was calculated using the equation described below:
# Activation (%)=(FTMR−F0)/(FTMR,DTT−F0)*100
# where FTMR is the fluorescence intensity of TMR at different times, FTMR,DTT is the fluorescence intensity of TMR after the addition of DTT at 24 hr, and F0 is the background of TMR fluorescence.
# For the N-ethylmaleimide (NEM) blocking experiments, the same procedures were used except that the cells were pretreated with 50 μM NEM for 30 min prior to the treatment with polymer and OVA^qRAS.
# [2] = Fluorescence emission as a function of pH in PBS; assay type: physicochemical; settings: pH 4.0 to 8.0, PBS, 6 hours
# Method: Samples were excited at 390 nm.
# FIG. 9 show the normalized fluorescence emission ratio of OVA^qRAS in PBS at different pH. OVA^qRAS (0.5 mg/mL) was incubated in PBS with different pH for 6 hours. The fluorescence emission spectra of TMR and Cy5 were recorded using a Hitachi fluorometer with excitation wavelength at 550 nm and 640 nm, respectively.
Molecule,fluorescence signals of OVA^qRAS after NEM pretreatment [1],TMR/Cy5 ratio across pH range [2]
CCN1C(=O)C=CC1=O [N-ethylmaleimide],significant suppression of fluorescence signals,–
B1,–,remained constant

# From US20210333263A1, “REDOX ACTIVATABLE FLUORESCENT SENSORS” (The Board of Regents of the University of Texas System, priority 2016, published 2021)
